How the values were obtained:
wild oat = assay: Test B pre/postemergence wild oat; type: in vivo, Avena fatua
Procedure, shortened: (§1)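 Herbicidal effect was estimated by eye on a ten-point control scale after plants spent twelve to sixteen days in a greenhouse following soil or foliar treatment. Foliar sprays targeted plants at one to four leaves; all doses were formulated in a non-phytotoxic solvent with surfactant.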

pigweed = assay: Test B pre/postemergence pigweed; type: in vivo, Amaranthus retroflexus
Procedure, shortened: as §1

rape = assay: Test B pre/postemergence rape; type: in vivo, Brassica napus
Procedure, shortened: as §1

wheat = assay: Test B pre/postemergence wheat; type: in vivo, Triticum aestivum
Procedure, shortened: as §1

cocklebur = assay: Test B pre/postemergence cocklebur; type: in vivo, Xanthium strumarium
Procedure, shortened: as §1

giant foxtail = assay: Test B pre/postemergence giant foxtail; type: in vivo, Setaria faberii
Procedure, shortened: as §1

corn = assay: Test B pre/postemergence corn; type: in vivo, Zea mays
Procedure, shortened: as §1

morningglory = assay: Test B pre/postemergence morningglory; type: in vivo, Ipomoea hederacea
Procedure, shortened: as §1

crabgrass = assay: Test B pre/postemergence crabgrass; type: in vivo, Digitaria sanguinalis
Procedure, shortened: as §1

surinam grass = assay: Test B pre/postemergence surinam grass; type: in vivo, Brachiaria decumbens
Procedure, shortened: as §1

soybean = assay: Test B pre/postemergence soybean; type: in vivo, Glycine max
Procedure, shortened: as §1

velvetleaf = assay: Test B pre/postemergence velvetleaf; type: in vivo, Abutilon theophrasti
Procedure, shortened: as §1

purple nutsedge = assay: Test B pre/postemergence purple nutsedge; type: in vivo, Cyperus rotundus
Procedure, shortened: as §1

bedstraw = assay: Test B pre/postemergence bedstraw; type: in vivo, Galium aparine
Procedure, shortened: as §1

blackgrass = assay: Test B pre/postemergence blackgrass; type: in vivo, Alopecurus myosuroides
Procedure, shortened: as §1

sugar beet = assay: Test B pre/postemergence sugar beet; type: in vivo, Beta vulgaris
Procedure, shortened: as §1

[1] = Preemergence, Rate 62 g/ha, scale of 0 to 10 where 0 is no effect and 10 is complete control
[2] = Preemergence, Rate 250 g/ha, scale 0 to 10, 0 is no effect, 10 is complete control
[3] = Preemergence, Rate 500 g/ha, scale 0 to 10 (0 no effect, 10 complete control)
[4] = Rate 62 g/ha, Postemergence, scale of 0 to 10 where 0 is no effect and 10 is complete control
[5] = Rate 125 g/ha, Postemergence, scale 0 to 10
[6] = Preemergence, Rate 125 g/ha, 0 is no effect, 10 is complete control
[7] = Rate 500 g/ha, Postemergence, scale 0 to 10

CC(C)N(C(=O)n1oc(=O)n(CC2CO2)c1=O)c1ccc(F)cc1 (centres unmarked) [Compound 188]
Wild oats plant response rating (wild oat; [1]): 0
Wild oats plant response rating (wild oat; [2]): 0
Wild oats plant response rating (wild oat; [3]): 0
Wild oats plant response rating (wild oat; [4]): 0
Wild oats plant response rating (wild oat; [5]): 0
Plant response rating (0 to 10; 0 is no effect, 10 is complete control), Wild oats (wild oat; Rate 250 g/ha, Postemergence): 0
Redroot pigweed plant response rating (pigweed; [1]): 0
Redroot pigweed plant response rating (0 to 10 scale) (pigweed; [6]): 0
Redroot pigweed plant response rating (pigweed; [2]): 0
Redroot pigweed plant response rating (pigweed; [3]): 0
Redroot pigweed plant response rating (pigweed; [4]): 0
Redroot pigweed plant response rating (pigweed; [5]): 0
Plant response rating (0 to 10; 0 is no effect, 10 is complete control), Redroot pigweed (pigweed; Rate 250 g/ha, Postemergence): 0
Redroot pigweed plant response rating (pigweed; [7]): 3
Rape plant response rating (rape; [1]): 0
Rape plant response rating (0 to 10 scale) (rape; [6]): 0
Rape plant response rating (rape; [2]): 0
Rape plant response rating (rape; [3]): 0
Rape plant response rating (rape; [4]): 0
Rape plant response rating (rape; [5]): 0
Plant response rating (0 to 10; 0 is no effect, 10 is complete control), Rape (rape; Rate 250 g/ha, Postemergence): 0
Rape plant response rating (rape; [7]): 0
Wheat plant response rating (wheat; [1]): 0
Wheat plant response rating (wheat; [2]): 0
Wheat plant response rating (wheat; [3]): 0
Wheat plant response rating (wheat; [4]): 0
Wheat plant response rating (wheat; [5]): 0
Plant response rating (0 to 10; 0 is no effect, 10 is complete control), Wheat (wheat; Rate 250 g/ha, Postemergence): 0
Cocklebur plant response rating (cocklebur; [1]): 0
Cocklebur plant response rating (0 to 10 scale) (cocklebur; [6]): 0
Cocklebur plant response rating (cocklebur; [2]): 0
Cocklebur plant response rating (cocklebur; [3]): 0
Cocklebur plant response rating (cocklebur; [4]): 0
Cocklebur plant response rating (cocklebur; [5]): 0
Plant response rating (0 to 10; 0 is no effect, 10 is complete control), Cocklebur (cocklebur; Rate 250 g/ha, Postemergence): 0
Cocklebur plant response rating (cocklebur; [7]): 0
Giant foxtail plant response rating (giant foxtail; [1]): 0
Giant foxtail plant response rating (0 to 10 scale) (giant foxtail; [6]): 2
Giant foxtail plant response rating (giant foxtail; [2]): 4
Giant foxtail plant response rating (giant foxtail; [3]): 7
Giant foxtail plant response rating (giant foxtail; [4]): 0
Giant foxtail plant response rating (giant foxtail; [5]): 0
Plant response rating (0 to 10; 0 is no effect, 10 is complete control), Giant foxtail (giant foxtail; Rate 250 g/ha, Postemergence): 2
Giant foxtail plant response rating (giant foxtail; [7]): 4
Corn plant response rating (corn; [1]): 0
Corn plant response rating (0 to 10 scale) (corn; [6]): 0
Corn plant response rating (corn; [2]): 0
Corn plant response rating (corn; [3]): 0
Corn plant response rating (corn; [4]): 0
Corn plant response rating (corn; [5]): 0
Plant response rating (0 to 10; 0 is no effect, 10 is complete control), Corn (corn; Rate 250 g/ha, Postemergence): 0
Corn plant response rating (corn; [7]): 0
Morningglory plant response rating (morningglory; [1]): 0
Morningglory plant response rating (0 to 10 scale) (morningglory; [6]): 0
Morningglory plant response rating (morningglory; [2]): 0
Morningglory plant response rating (morningglory; [3]): 0
Morningglory plant response rating (morningglory; [4]): 0
Morningglory plant response rating (morningglory; [5]): 0
Plant response rating (0 to 10; 0 is no effect, 10 is complete control), Morningglory (morningglory; Rate 250 g/ha, Postemergence): 0
Morningglory plant response rating (morningglory; [7]): 0
Crabgrass plant response rating (crabgrass; [1]): 0
Crabgrass plant response rating (0 to 10 scale) (crabgrass; [6]): 0
Crabgrass plant response rating (crabgrass; [2]): 0
Crabgrass plant response rating (crabgrass; [3]): 0
Crabgrass plant response rating (crabgrass; [4]): 0
Crabgrass plant response rating (crabgrass; [5]): 0
Plant response rating (0 to 10; 0 is no effect, 10 is complete control), Crabgrass (crabgrass; Rate 250 g/ha, Postemergence): 3
Crabgrass plant response rating (crabgrass; [7]): 3
B. signalgrass plant response rating (surinam grass; [1]): 0
B. signalgrass plant response rating (0 to 10 scale) (surinam grass; [6]): 0
B. signalgrass plant response rating (surinam grass; [2]): 6
B. signalgrass plant response rating (surinam grass; [3]): 7
B. signalgrass plant response rating (surinam grass; [4]): 0
B. signalgrass plant response rating (surinam grass; Rate 125 g/ha, Postemergence, scale 0 (no effect) to 10 (complete control)): 0
Plant response rating, B. signalgrass (surinam grass; Rate 250 g/ha, Postemergence, scale 0 to 10, 0 is no effect, 10 is complete control): 0
B. signalgrass plant response rating (surinam grass; Rate 500 g/ha, Postemergence, scale 0 to 10, 0 no effect, 10 complete control): 0
Soybean plant response rating (soybean; [1]): 0
Soybean plant response rating (0 to 10 scale) (soybean; [6]): 0
Soybean plant response rating (soybean; [2]): 0
Soybean plant response rating (soybean; [3]): 0
Soybean plant response rating (soybean; [4]): 1
Soybean plant response rating (soybean; [5]): 2
Plant response rating (0 to 10; 0 is no effect, 10 is complete control), Soybean (soybean; Rate 250 g/ha, Postemergence): 2
Soybean plant response rating (soybean; [7]): 3
Velvetleaf plant response rating (velvetleaf; [1]): 0
Velvetleaf plant response rating (velvetleaf; [2]): 0
Velvetleaf plant response rating (velvetleaf; [3]): 2
Velvetleaf plant response rating (velvetleaf; [4]): 0
Velvetleaf plant response rating (velvetleaf; [5]): 0
Plant response rating (0 to 10; 0 is no effect, 10 is complete control), Velvetleaf (velvetleaf; Rate 250 g/ha, Postemergence): 0
Nutsedge plant response rating (purple nutsedge; [1]): 0
Nutsedge plant response rating (0 to 10 scale) (purple nutsedge; [6]): 0
Nutsedge plant response rating (purple nutsedge; [2]): 0
Nutsedge plant response rating (purple nutsedge; [3]): 0
Nutsedge plant response rating (purple nutsedge; [4]): 0
Nutsedge plant response rating (purple nutsedge; [5]): 0
Plant response rating (0 to 10; 0 is no effect, 10 is complete control), Nutsedge (purple nutsedge; Rate 250 g/ha, Postemergence): 0
Nutsedge plant response rating (purple nutsedge; [7]): 0
Bedstraw plant response rating (bedstraw; [1]): 0
Bedstraw plant response rating (0 to 10 scale) (bedstraw; [6]): 0
Bedstraw plant response rating (bedstraw; [2]): 0
Bedstraw plant response rating (bedstraw; [3]): 0
Bedstraw plant response rating (bedstraw; [4]): 0
Bedstraw plant response rating (bedstraw; [5]): 0
Plant response rating (0 to 10; 0 is no effect, 10 is complete control), Bedstraw (bedstraw; Rate 250 g/ha, Postemergence): 3
Bedstraw plant response rating (bedstraw; [7]): 5
Blackgrass plant response rating (blackgrass; [1]): 0
Blackgrass plant response rating (0 to 10 scale) (blackgrass; [6]): 0
Blackgrass plant response rating (blackgrass; [2]): 0
Blackgrass plant response rating (blackgrass; [3]): 0
Blackgrass plant response rating (blackgrass; [4]): 0
Blackgrass plant response rating (blackgrass; [5]): 0
Plant response rating (0 to 10; 0 is no effect, 10 is complete control), Blackgrass (blackgrass; Rate 250 g/ha, Postemergence): 0
Blackgrass plant response rating (blackgrass; [7]): 3
Sugarbeets plant response rating (sugar beet; [1]): 0
Sugarbeets plant response rating (0 to 10 scale) (sugar beet; [6]): 0
Sugarbeets plant response rating (sugar beet; [2]): 0
Sugarbeets plant response rating (sugar beet; [3]): 6
Sugarbeets plant response rating (sugar beet; [4]): 0
Sugarbeets plant response rating (sugar beet; [5]): 0
Plant response rating (0 to 10; 0 is no effect, 10 is complete control), Sugarbeets (sugar beet; Rate 250 g/ha, Postemergence): 0
Sugarbeets plant response rating (sugar beet; [7]): 7
